From the supplement of paper PMC6965134
± gives the standard deviation of the averaged measurements.

Test: TIMS collisional cross section (CCS, N2) of the lipid ion; higher = larger ion cross section
Settings: ionization mode: positive, one isomer drawn

Row | TIMS collisional cross section (sample type: HeLa) | TIMS collisional cross section (sample type: Liver) | TIMS collisional cross section (sample type: plasma) | SMILES
1 | 292.4 Å² | – | – | CCCCCCCC/C=C\CCCCCCCC(=O)OC[C@H](COP(=O)(O)OCCN)OC(=O)CCCCCCCCC/C=C\CCCCCCCCCC [PE 18:1_22:1] (ion (formula + adduct): [C45H86NO8P+H] 1+)
2 | – | 291.5 Å² | – | CCCCC/C=C\C/C=C\CCCCCCCCCCCC(=O)O[C@H](COC(=O)CCCCCCC/C=C\CCCCCCCC)COP(=O)(O)OCCN [PE 18:1_22:2@] (ion (formula + adduct): [C45H84NO8P+H] 1+)
3 | 270 Å² | – | – | CCCCC/C=C\C/C=C\CCCCCCCC(=O)OC[C@H](COP(=O)(O)OCCN)OC(=O)CCCCCCC/C=C\CCCCCC [PE 18:2@_16:1] (ion (formula + adduct): [C39H72NO8P+H] 1+)
4 | – | 277.2 Å² | – | CC/C=C\C/C=C\C/C=C\C/C=C\C/C=C\CCCC(=O)O[C@H](COC(=O)CCCCCCC/C=C\C/C=C\CCCCC)COP(=O)(O)OCCN [PE 18:2@_20:5] (ion (formula + adduct): [C43H72NO8P+H] 1+)
5 | – | 268.7 Å² | – | CCCCC/C=C\C/C=C\CCCCCCCC(=O)OC[C@H](COP(=O)(O)OCCN)OC(=O)CCCCCCC/C=C\CCCCCC [PE 18:2_16:1] (ion (formula + adduct): [C39H72NO8P+H] 1+)
6 | – | 273.1 Å² | – | CCCCC/C=C\C/C=C\CCCCCCCC(=O)OC[C@H](COP(=O)(O)OCCN)OC(=O)CCCCCCC/C=C\C/C=C\CCCCC [PE 18:2_18:2] (ion (formula + adduct): [C41H74NO8P+H] 1+)
7 | – | 270.2 Å² | – | CCCCC/C=C\C/C=C\C/C=C\CCCCC(=O)O[C@H](COC(=O)CCCCCCC/C=C\C/C=C\CCCCC)COP(=O)(O)OCCN [PE 18:2_18:3] (ion (formula + adduct): [C41H72NO8P+H] 1+)
8 | – | 284.2 Å² | – | CCCCC/C=C\C/C=C\CCCCCCCC(=O)OC[C@H](COP(=O)(O)OCCN)OC(=O)CCCCCCCCC/C=C\CCCCCCCC [PE 18:2_20:1] (ion (formula + adduct): [C43H80NO8P+Na] 1+)
9 | 273.8 Å² | 273.7 Å² | – | CCCCC/C=C\C/C=C\C/C=C\C/C=C\CCCC(=O)O[C@H](COC(=O)CCCC/C=C\C/C=C\C/C=C\CCCCC)COP(=O)(O)OCCN [PE 18:3_20:4@] (ion (formula + adduct): [C43H72NO8P+H] 1+)
10 | – | 276.7 Å² | – | CC/C=C\C/C=C\C/C=C\C/C=C\C/C=C\C/C=C\CCC(=O)O[C@H](COC(=O)CCCC/C=C\C/C=C\C/C=C\CCCCC)COP(=O)(O)OCCN [PE 18:3_22:6] (ion (formula + adduct): [C45H72NO8P+H] 1+)
11 | 287.3 Å² | – | – | CCCCC/C=C\C/C=C\C/C=C\C/C=C\CCCC(=O)O[C@H](COC(=O)CCCCCCCCCCCCCCCCCC)COP(=O)(O)OCCN [PE 19:0_20:4@] (ion (formula + adduct): [C44H80NO8P+H] 1+)
12 | – | 286.3 Å² | – | CCCCC/C=C\C/C=C\CCCCCCCC(=O)O[C@H](COC(=O)CCCCCCCCCCCCCCCCCCC)COP(=O)(O)OCCN [PE 20:0@_18:2] (ion (formula + adduct): [C43H82NO8P+H] 1+)
13 | – | 287.2 Å² | – | CCCCC/C=C\C/C=C\C/C=C\C/C=C\CCCC(=O)O[C@H](COC(=O)CCCCCCCCC/C=C\CCCCCCCC)COP(=O)(O)OCCN [PE 20:1_20:4] (ion (formula + adduct): [C45H80NO8P+H] 1+)
14 | 279.1 Å² | – | – | CCCCC/C=C\C/C=C\C/C=C\CCCCCCC(=O)OC[C@H](COP(=O)(O)OCCN)OC(=O)CCCCCCCCCCCCCCC [PE 20:3@_16:0] (ion (formula + adduct): [C41H76NO8P+H] 1+)
15 | – | 280.9 Å² | – | CCCCC/C=C\C/C=C\C/C=C\C/C=C\CCCC(=O)O[C@H](COC(=O)CCCCCC/C=C\C/C=C\C/C=C\CCCCC)COP(=O)(O)OCCN [PE 20:3_20:4@] (ion (formula + adduct): [C45H76NO8P+H] 1+)
16 | 270.2 Å² | – | – | CCCCC/C=C\C/C=C\C/C=C\C/C=C\CCCC(=O)OC[C@H](COP(=O)(O)OCCN)OC(=O)CCCCCCCCCCCCC [PE 20:4@_14:0] (ion (formula + adduct): [C39H70NO8P+H] 1+)
17 | 284.8 Å² | 284.4 Å² | – | CC/C=C\C/C=C\C/C=C\C/C=C\C/C=C\C/C=C\CCC(=O)O[C@H](COC(=O)CCC/C=C\C/C=C\C/C=C\C/C=C\CCCCC)COP(=O)(O)OCCN [PE 20:4@_22:6] (ion (formula + adduct): [C47H74NO8P+H] 1+)
18 | 272.4 Å² | 272.6 Å² | – | CCCCC/C=C\C/C=C\C/C=C\C/C=C\CCCC(=O)OC[C@H](COP(=O)(O)OCCN)OC(=O)CCCCCCC/C=C\CCCCCC [PE 20:4_16:1] (ion (formula + adduct): [C41H72NO8P+H] 1+)

Row | TIMS collisional cross section (sample type: HeLa) | TIMS collisional cross section (sample type: Liver) | TIMS collisional cross section (sample type: plasma) | SMILES
19 | 279.1 Å² | 280 ± 0.42 Å² | – | CCCCC/C=C\C/C=C\C/C=C\C/C=C\CCCC(=O)OC[C@H](COP(=O)(O)OCCN)OC(=O)CCCCCCC/C=C\CCCCCCCC [PE 20:4_18:1] (ion (formula + adduct): [C43H76NO8P+H] 1+)
20 | – | 290.4 Å² | – | CCCCC/C=C\C/C=C\C/C=C\C/C=C\CCCC(=O)OC[C@H](COP(=O)(O)OCCN)OC(=O)CCCCCCCCCCCCCCCCCCC [PE 20:4_20:0] (ion (formula + adduct): [C45H82NO8P+H] 1+)
21 | 280.6 Å² | 279.6 Å² | – | CCCCC/C=C\C/C=C\C/C=C\C/C=C\CCCC(=O)OC[C@H](COP(=O)(O)OCCN)OC(=O)CCC/C=C\C/C=C\C/C=C\C/C=C\CCCCC [PE 20:4_20:4] (ion (formula + adduct): [C45H74NO8P+H] 1+)
22 | 279.1 Å² | – | – | CC/C=C\C/C=C\C/C=C\C/C=C\C/C=C\CCCC(=O)O[C@H](COC(=O)CCC/C=C\C/C=C\C/C=C\C/C=C\CCCCC)COP(=O)(O)OCCN [PE 20:4_20:5] (ion (formula + adduct): [C45H72NO8P+H] 1+)
23 | – | 281.4 Å² | – | CC/C=C\C/C=C\C/C=C\C/C=C\C/C=C\CCCC(=O)OC[C@H](COP(=O)(O)OCCN)OC(=O)CCCCCCCCCCCCCCCCC [PE 20:5_18:0] (ion (formula + adduct): [C43H76NO8P+H] 1+)
24 | 294.9 Å² | – | – | CCCC/C=C\CCCCCCCCCCCC(=O)O[C@H](COC(=O)CCCCCCCCCCCCCCCCCCCCC)COP(=O)(O)OCCN [PE 22:0_18:1@] (ion (formula + adduct): [C45H88NO8P+H] 1+)
25 | – | 289.7 Å² | – | CCCCC/C=C\C/C=C\C/C=C\C/C=C\CCCCCC(=O)OC[C@H](COP(=O)(O)OCCN)OC(=O)CCCCCCCCCCCCCCCCC [PE 22:4_18:0] (ion (formula + adduct): [C45H82NO8P+H] 1+)
26 | 275 Å² | – | – | CC/C=C\C/C=C\C/C=C\C/C=C\C/C=C\C/C=C\CCC(=O)OC[C@H](COP(=O)(O)OCCN)OC(=O)CCCCCCC/C=C\CCCCCC [PE 22:6@_16:1] (ion (formula + adduct): [C43H72NO8P+H] 1+)
27 | 281.9 Å² | – | – | CC/C=C\C/C=C\C/C=C\C/C=C\C/C=C\C/C=C\CCC(=O)OC[C@H](COP(=O)(O)OCCN)OC(=O)CCCCCCC/C=C\CCCCCCCC [PE 22:6_18:1@] (ion (formula + adduct): [C45H76NO8P+H] 1+)
28 | – | 281.4 Å² | – | CC/C=C\C/C=C\C/C=C\C/C=C\C/C=C\C/C=C\CCC(=O)OC[C@H](COP(=O)(O)OCCN)OC(=O)CCCCCCC/C=C\CCCCCCCC [PE 22:6_18:1] (ion (formula + adduct): [C45H76NO8P+H] 1+)
29 | – | 292.6 Å² | – | CC/C=C\C/C=C\C/C=C\C/C=C\C/C=C\C/C=C\CCC(=O)OC[C@H](COP(=O)(O)OCCN)OC(=O)CCCCCCCCCCCCCCCCCCC [PE 22:6_20:0] (ion (formula + adduct): [C47H82NO8P+H] 1+)
30 | 286.7 Å² | – | – | CC/C=C\C/C=C\C/C=C\C/C=C\C/C=C\C/C=C\CCC(=O)OC[C@H](COP(=O)(O)OCCN)OC(=O)CC/C=C\C/C=C\C/C=C\C/C=C\C/C=C\C/C=C\CC [PE 22:6_22:6] (ion (formula + adduct): [C49H74NO8P+H] 1+)
31 | 276 Å² | – | – | CCCCCCCC/C=C\CCCCCCCC(=O)O[C@H](COCCCCCCCCCCCCCCCC)COP(=O)(O)OCCN [PE O- 16:0@_18:1] (ion (formula + adduct): [C39H78NO7P+H] 1+)
32 | – | – | 275.8 Å² | CCCCC/C=C\C/C=C\C/C=C\C/C=C\CCCC(=O)O[C@H](COCCCCCCCCCCCCCCCC)COP(=O)(O)OCCN [PE O- 16:0@_20:4] (ion (formula + adduct): [C41H76NO7P+H] 1+)
33 | 281.6 Å² | – | – | CCCCC/C=C\C/C=C\C/C=C\C/C=C\C/C=C\CCC(=O)O[C@H](COCCCCCCCCCCCCCCCC)COP(=O)(O)OCCN [PE O- 16:0@_22:5] (ion (formula + adduct): [C43H78NO7P+H] 1+)
34 | 279.6 Å² | – | – | CC/C=C\C/C=C\C/C=C\C/C=C\C/C=C\C/C=C\CCC(=O)O[C@H](COCCCCCCCCCCCCCCCC)COP(=O)(O)OCCN [PE O- 16:0@_22:6] (ion (formula + adduct): [C43H76NO7P+H] 1+)
35 | – | 284 Å² | – | CCCCC/C=C\C/C=C\C/C=C\C/C=C\CCCC(=O)O[C@H](COCCCCCCCCCCCCCCCCCC)COP(=O)(O)OCCN [PE O- 18:0@_20:4] (ion (formula + adduct): [C43H80NO7P+H] 1+)
36 | 274 Å² | 274.1 Å² | 274.1 Å² | CCCCCCCC/C=C\CCCCCCCC(=O)O[C@H](CO/C=C\CCCCCCCCCCCCCC)COP(=O)(O)OCCN [PE P- 16:0@_18:1] (ion (formula + adduct): [C39H76NO7P+H] 1+)
